Experimental data from patent publication US8486434B2, “Medical implant containing an antioxidative substance” (Biotronik VI Patent AG, priority 2009, dated 2013).

Test: toxicity of isoprenoids (compatibility with the body)
Conditions: in concentrations of 10 μmol/l
Text: Thus, for example, lycopene and ubichinon are already toxic in concentrations of 10 μmol/l. Squalene, on the other hand, is not toxic, even in concentrations of 100 μmol/l.

ubichinon
toxicity: toxic
